Measured values taken from ChEMBL document CHEMBL5543174, “A Nonbactericidal Anionic Antimicrobial Peptide Provides Prophylactic and Therapeutic Efficacies against Bacterial Infections in Mice by Immunomodulatory-Antithrombotic Duality” (J Med Chem, 2024).
Active and inactive are the calls of the source. No cut-off for these calls is given here.

What was measured:
[1] = system: Peritoneal macrophage cell; assay: Induction of chemotaxis in mouse Peritoneal macrophage assessed as upregulation of CXCL2 production at 100 ug/ml preincubated with WRW4 followed by compound addition by ELISA; assay type: functional, cell-based; details: dose 100.0 µg/ml
[2] = system: Peritoneal macrophage cell; assay: Induction of phagocytosis in mouse Peritoneal macrophage assessed as increase in neutral red dye uptake by measuring optical density absorbance at 50 ug/ml incubated for 24 hrs followed by dye addition measured after 4 hrs by absorbance based assay (reference value: 0.089); assay type: functional; details: dose 50 µg/ml; time 28 hrs
[3] = system: Staphylococcus aureus; assay: Antibacterial activity against Methicillin-resistant Staphylococcus aureus infected in C57BL/6 mouse assessed as reduction in IL-1beta level in peritoneal fluid at 10 mg/kg,ip pre-administrated 5 hrs before bacterial infection measured after 24 hrs by ELISA; assay type: functional, organism-based; details: time 29.0 hrs
[4] = system: Escherichia coli; assay: Antibacterial activity against Carbapenem-resistant Escherichia coli infected in C57BL/6 mouse assessed as reduction in inflammatory injury in lung at 10 mg/kg,ip pre-administrated 5 hrs before bacterial infection measured after 24 hrs by hematoxylin and eosin staining based analysis; assay type: functional, organism-based; details: time 29.0 hrs
[5] = system: Mus musculus; assay: Immunomodulatory activity in clodronate liposome immunosuppressed C57BL/6 mouse with monocyte depletion model assessed as increase in number of monocyte in peritoneal lavage at 10 mg/kg,ip administration measured after 12 hrs by flow cytometry; assay type: functional, organism-based
[6] = system: Staphylococcus aureus; assay: Antimicrobial activity against Methicillin-resistant Staphylococcus aureus assessed as reduction in microbial colony forming unit at 200 ug/ml incubated for 1 to 4 hrs by time-kill kinetics based analysis; assay type: functional, organism-based; details: dose 200.0 µg/ml, time 1-4 hrs
[7] = system: Staphylococcus aureus; assay: Antibacterial activity against Staphylococcus aureus ATCC 25923 infected in C57BL/6 mouse assessed as reduction in inflammatory injury in lung at 10 mg/kg,ip administrated 5 hrs after bacterial infection measured after 24 hrs by hematoxylin and eosin staining based analysis; assay type: functional, organism-based; details: time 19.0 hrs
[8] = system: Staphylococcus aureus; assay: Antibacterial activity against Methicillin-resistant Staphylococcus aureus infected in C57BL/6 mouse assessed as reduction in IL-6 level in serum at 10 mg/kg,ip pre-administrated 5 hrs before bacterial infection measured after 24 hrs by ELISA; assay type: functional, organism-based; details: time 29.0 hrs
[9] = system: Staphylococcus aureus; assay: Antibacterial activity against Methicillin-resistant Staphylococcus aureus infected in C57BL/6 mouse with clodronate liposome-induced monocyte depletion model assessed as reduction of bacterial burden in peritoneal cavity at 10 mg/kg,ip administrated 5 hrs after bacterial infection measured after 24 hrs; assay type: functional, organism-based; details: time 19.0 hrs
[10] = system: Mus musculus; assay: Immunomodulatory activity in clodronate liposome immunosuppressed C57BL/6 mouse with monocyte depletion model assessed as increase in number of monocyte in peritoneal lavage at 10 mg/kg,ip administration measured after 5 hrs by flow cytometry; assay type: functional, organism-based
[11] = system: Escherichia coli; assay: Antibacterial activity against Carbapenem-resistant Escherichia coli infected in C57BL/6 mouse assessed as reduction in IL-6 level in serum at 10 mg/kg,ip pre-administrated 5 hrs before bacterial infection measured after 24 hrs by ELISA; assay type: functional, organism-based; details: time 29.0 hrs
[12] = system: Staphylococcus aureus; assay: Antibacterial activity against Methicillin-resistant Staphylococcus aureus infected in C57BL/6 mouse assessed as reduction in IL-6 level in peritoneal fluid at 10 mg/kg,ip pre-administrated 5 hrs before bacterial infection measured after 24 hrs by ELISA; assay type: functional, organism-based; details: time 29.0 hrs
[13] = system: Staphylococcus epidermidis; assay: Antimicrobial activity against Staphylococcus epidermidis ATCC 12228 assessed as inhibition of microbial growth at <= 200 ug/ml incubated for 18 hrs by micro-broth dilution method; assay type: functional, organism-based; details: dose <= 200.0 µg/ml
[14] = system: Escherichia coli; assay: Antibacterial activity against Escherichia coli ATCC 25922 infected in C57BL/6 mouse assessed as reduction in bacterial load at 10 mg/kg,ip pre-administrated 5 hrs before bacterial infection; assay type: functional, organism-based
[15] = system: Peritoneal macrophage; assay: Immunomodulatory activity in mouse Peritoneal macrophage assessed as decrease in LPS-induced TNF-alpha production at 25 to 100 ug/ml incubated for 6 hrs by ELISA; assay type: functional, cell-based; details: dose 25-100 µg/ml
[16] = system: Candida albicans; assay: Antimicrobial activity against Candida albicans ATCC 2002 assessed as reduction in microbial colony forming unit at 200 ug/ml incubated for 1 to 4 hrs by time-kill kinetics based analysis; assay type: functional, organism-based; details: dose 200.0 µg/ml, time 1-4 hrs
[17] = system: Staphylococcus aureus; assay: Antimicrobial activity against Staphylococcus aureus ATCC 25923 assessed as inhibition of microbial growth at <= 200 ug/ml incubated for 18 hrs by micro-broth dilution method; assay type: functional, organism-based; details: dose <= 200.0 µg/ml
[18] = system: Staphylococcus aureus; assay: Antibacterial activity against Methicillin-resistant Staphylococcus aureus infected in C57BL/6 mouse assessed as increase in survival rate at 10 mg/kg,ip pre-administrated 5 hrs before bacterial infection measured after 7 days; assay type: functional, organism-based; details: time 7.0 day
[19] = system: Escherichia coli; assay: Antibacterial activity against Carbapenem-resistant Escherichia coli infected in C57BL/6 mouse assessed as reduction in IL-6 level in peritoneal fluid at 10 mg/kg,ip administrated 5 hrs after bacterial infection measured after 24 hrs by ELISA; assay type: functional, organism-based; details: time 19.0 hrs
[20] = system: Peritoneal macrophage; assay: Immunoregulatory activity in mouse Peritoneal macrophage assessed as upregulation of JNK phosphorylation incubated for 1 hr by Western blotting analysis; assay type: functional, cell-based
[21] = system: Peritoneal macrophage; assay: Immunomodulatory activity in mouse Peritoneal macrophage assessed as decrease in LPS-induced IL-1beta production at 25 to 100 ug/ml incubated for 6 hrs by ELISA; assay type: functional, cell-based; details: dose 25-100 µg/ml
[22] = system: Peritoneal macrophage; assay: Immunoregulatory activity in mouse Peritoneal macrophage assessed as change in total p38 expression at 25 to 100 ug/ml incubated for 1 hr by Western blotting analysis; assay type: functional, cell-based; details: dose 25-100 µg/ml
[23] = system: Peritoneal macrophage; assay: Immunoregulatory activity in mouse Peritoneal macrophage assessed as upregulation of p65 phosphorylation incubated for 1 hr by Western blotting analysis; assay type: functional, cell-based
[24] = system: Staphylococcus aureus; assay: Antibacterial activity against Methicillin-resistant Staphylococcus aureus infected in C57BL/6 mouse assessed as reduction in TNF-alpha level in serum at 10 mg/kg,ip pre-administrated 5 hrs before bacterial infection measured after 24 hrs by ELISA; assay type: functional, organism-based; details: time 29.0 hrs
[25] = system: Alcaligenes faecalis; assay: Antimicrobial activity against Alcaligenes faecalis ATCC 8750 assessed as inhibition of microbial growth at <= 200 ug/ml incubated for 18 hrs by micro-broth dilution method; assay type: functional, organism-based; details: dose <= 200.0 µg/ml
[26] = system: Escherichia coli; assay: Antimicrobial activity against Carbapenem-resistant Escherichia coli assessed as reduction in microbial colony forming unit at 200 ug/ml incubated for 1 to 4 hrs by time-kill kinetics based analysis; assay type: functional, organism-based; details: dose 200.0 µg/ml, time 1-4 hrs
[27] = system: Escherichia coli; assay: Antibacterial activity against Escherichia coli ATCC 25922 infected in C57BL/6 mouse assessed as reduction in TNF-alpha level in serum at 10 mg/kg,ip administrated 5 hrs after bacterial infection measured after 24 hrs by ELISA; assay type: functional, organism-based; details: time 19.0 hrs
[28] = system: Escherichia coli; assay: Antibacterial activity against Escherichia coli ATCC 25922 infected in C57BL/6 mouse assessed as increase in survival rate at 10 mg/kg,ip administrated 5 hrs after bacterial infection measured after 7 days; assay type: functional, organism-based; details: time 7.0 day
[29] = system: Candida albicans; assay: Antimicrobial activity against Candida albicans ATCC 2002 assessed as inhibition of microbial growth at <= 200 ug/ml incubated for 18 hrs by micro-broth dilution method; assay type: functional, organism-based; details: dose <= 200.0 µg/ml
[30] = system: Mus musculus; assay: Anticoagulation activity in mouse assessed as change in plasma TFPI expression at 10 mg/kg,ip measured after 24 hrs by ELISA; assay type: functional, organism-based
[31] = system: Escherichia coli; assay: Antibacterial activity against Escherichia coli ATCC 25922 infected in C57BL/6 mouse assessed as reduction in inflammatory injury in lung at 10 mg/kg,ip administrated 5 hrs after bacterial infection measured after 24 hrs by hematoxylin and eosin staining based analysis; assay type: functional, organism-based; details: time 19.0 hrs

CC[C@H](C)[C@H](NC(=O)[C@@H]1CSSC[C@H](NC(=O)[C@H](CCC(=O)O)NC(=O)[C@@H](NC(=O)[C@H](CCCCN)NC(=O)[C@H](Cc2c[nH]cn2)NC(=O)[C@@H](NC(=O)[C@H](CCCCN)NC(=O)[C@H](CCC(=O)O)NC(=O)[C@H](C)NC(=O)[C@H](CCC(=O)O)NC(=O)[C@H](CCC(=O)O)NC(=O)[C@H](CCC(=O)O)NC(=O)[C@H](C)N)[C@@H](C)O)[C@@H](C)O)C(=O)N[C@@H](CC(C)C)C(=O)N[C@@H](CCC(=O)O)C(=O)N1)C(=O)N[C@@H](Cc1ccccc1)C(=O)N[C@H](C(=O)N[C@@H](CC(C)C)C(=O)N[C@@H](CC(C)C)C(=O)N1CCC[C@H]1C(=O)N1CCC[C@@H]1C(=O)N[C@H](C)C(=O)O)[C@@H](C)O
Activity [1]: Active
OD [2]: 0.102
Activity [3]: Active
Activity [4]: Active
Activity [5]: Active
Activity [6]: inactive
Activity [7]: Active
Activity [8]: Active
Activity [9]: inactive
Activity [10]: Active
Activity [11]: Active
Activity [12]: Active
Activity [13]: inactive
Activity [14]: Active
Activity [15]: inactive
Activity [16]: inactive
Activity [17]: inactive
Activity [18]: Active
Activity [19]: Active
Activity [20]: Dose-Dependent Effect
Activity [21]: inactive
Activity [22]: inactive
Activity [23]: Dose-Dependent Effect
Activity [24]: Active
Activity [25]: inactive
Activity [26]: inactive
Activity [27]: Active
Activity [28]: Active
Activity [29]: inactive
Activity [30]: inactive
Activity [31]: Active
